Data reported in patent US8614238B2, “Cyclopentanecarboxamide derivatives, medicaments containing such compounds and their use” (Boehringer Ingelheim International GmbH, priority 2009, dated 2013).

Legend:
[1] = target: T1, Fatty Acid Synthase (FAS) (Homo sapiens, UniProt P49327); test: Human FAS Enzyme Assay; type: biochemical; details: FAS enzyme prepared from HeLa cells; NADPH consumption; read-out: IC50 (potency range)
T1 construct: The FAS enzyme is prepared from HeLa cells; endogenous in cells; host or cells: HeLa cells
Text: Fatty acid synthase is an enzyme complex that harbours seven enzymatic activities catalysing the reductive synthesis of long chain fatty acids from acetyl CoA and malonyl CoA to palmitate. When acetyl CoA and malonyl CoA are forming palmitate NADPH is consumed forming NADP. Since NADPH is fluorescent but not NADP the reaction can be measured by analysing the decrease in fluorescence.
Acetyl coenzyme A (cat.-no. A-2181) and malonyl coenzyme A (cat.-no. M-4263) are purchased from Sigma. NADPH (cat.-no. 30316) is purchased from Serva. The FAS enzyme is prepared from HeLa cells. All other material is of highest grade commercially available.
In the plates, 10 μl test compound in distilled water/DMSO (final concentration 0.1% DMSO) are mixed with 35 μl of a mixture of NADPH and acetyl CoA in phosphate buffer (f.c. 326 μM and 60 μM, respectively), and 45 μl FAS enzyme diluted in enzyme buffer. The plates are incubated for 60 minutes at 37° C. The reaction is then started by the addition of 10 μl malonyl CoA dissolved in water (200 μM). The decrease of the optical density in the wells is determined at 37° C. at a wavelength of 340 nm over 10 minutes. From these kinetic data, the slope (i.e. Vmax) is calculated and used for the calculation.
20 mM KH2PO4/K2HPO4, 1 mM EDTA, 1 mM DTT, 5% glycerol, pH 7.4
Each assay 96 well microtiter plate contains wells with vehicle controls instead of compound (1% DMSO in water) as reference for non-inhibited enzyme activity and wells without malonyl CoA as controls for non-specific NADPH degradation. The analysis of the data is performed by the calculation of the OD decrease in the presence of the test compound compared to the OD decrease of the test control wells after subtraction of the non-specific background without the malonyl CoA substrate (slope(sample)-slope(sample w/o malonyl CoA). An inhibitor of the FAS enzyme will give values between Control values (complete reaction without substance) and complete inhibition. Reported values will include: IC50; Top(Control: nmol NADPH oxidized/min/mg); Bottom (MaxInh: nmol NADPH oxidized/min/mg); RATIO (log(IC50 substance/IC50 control inhibitor)).

[2] = tested on: N-42 cells; test: 14C-acetate incorporation in N-42 cells; type: cell-based
Experimental: ^14C-Acetat Incorporation in N-42 Cells
30000 cells (N-42), in 24 well plates are incubated with the compound dissolved in 500 μL Krebs-Ringer-buffer for 60 min at 37° C., then incubated with 5 μL 1:10 14C-Acetate dilution (1 000 000 dpm) for 4 hours at 37° C. incubation, then washed with 500 μl PBS. 500 μL chloroform/methanol mix 1:1 and 175 μL sodium hydroxide solution was given in each well. The upper fraction is taken away and the lower fraction is vaporized. 50 μL chloroform/methanol mix 1:1 is again given in every well. 10 μL each are taken and given to scintillation vials with 4 mL Ultima Gold. Each vial is measured for 1 minute in a β-Counter.
Cerulenin, a literature known FAS inhibitor is used to validate the assay.

[3] = tested on: sebaceous glands; test: In vivo activity on sebaceous glands in rats; parameters: species or system Wistar rats
Experimental: In vivo activity of the FAS inhibitors on sebaceous glands is determined as exemplified with the following experiment: Female Wistar rats [Crl:Wi(Han); Charles River, Germany] weighing 200-240 g are conventionally housed in Makrolon type cages at a constant temperature of 22±3° C., on a 12 h light/dark cycle. Food and water are provided ad libitum. The animals (n=7 per group) are orally treated once daily with 3, 10 and 30 mg/kg of compound 1.2 in a suspension with 0.5% Natrosol for seven days. All experimental procedures are conducted according to the German Animal Protection Law. Beginning with day 4 of treatment, at the highest dose effects on skin and coat of the animals could be detected. […] With longer treatment alopecia and cutaneous lesions also developed at the skin of the back. At day seven the animals are euthanized and representative tissue samples of the eye lid, muzzle and back skin are collected into 4% formaldehyde solution for microscopic examination. After trimming, the fixed tissues are processed, embedded in paraffin, sectioned at a thickness of approximately 4 μm and stained with hematoxylin-eosin (H&E). […] This lesion is sometimes accompanied by a slight inflammatory reaction.

[4] = female Wistar rats, highest dose (30 mg/kg orally once daily), beginning with day 4 of treatment

T1 sequence (P49327 whole entry): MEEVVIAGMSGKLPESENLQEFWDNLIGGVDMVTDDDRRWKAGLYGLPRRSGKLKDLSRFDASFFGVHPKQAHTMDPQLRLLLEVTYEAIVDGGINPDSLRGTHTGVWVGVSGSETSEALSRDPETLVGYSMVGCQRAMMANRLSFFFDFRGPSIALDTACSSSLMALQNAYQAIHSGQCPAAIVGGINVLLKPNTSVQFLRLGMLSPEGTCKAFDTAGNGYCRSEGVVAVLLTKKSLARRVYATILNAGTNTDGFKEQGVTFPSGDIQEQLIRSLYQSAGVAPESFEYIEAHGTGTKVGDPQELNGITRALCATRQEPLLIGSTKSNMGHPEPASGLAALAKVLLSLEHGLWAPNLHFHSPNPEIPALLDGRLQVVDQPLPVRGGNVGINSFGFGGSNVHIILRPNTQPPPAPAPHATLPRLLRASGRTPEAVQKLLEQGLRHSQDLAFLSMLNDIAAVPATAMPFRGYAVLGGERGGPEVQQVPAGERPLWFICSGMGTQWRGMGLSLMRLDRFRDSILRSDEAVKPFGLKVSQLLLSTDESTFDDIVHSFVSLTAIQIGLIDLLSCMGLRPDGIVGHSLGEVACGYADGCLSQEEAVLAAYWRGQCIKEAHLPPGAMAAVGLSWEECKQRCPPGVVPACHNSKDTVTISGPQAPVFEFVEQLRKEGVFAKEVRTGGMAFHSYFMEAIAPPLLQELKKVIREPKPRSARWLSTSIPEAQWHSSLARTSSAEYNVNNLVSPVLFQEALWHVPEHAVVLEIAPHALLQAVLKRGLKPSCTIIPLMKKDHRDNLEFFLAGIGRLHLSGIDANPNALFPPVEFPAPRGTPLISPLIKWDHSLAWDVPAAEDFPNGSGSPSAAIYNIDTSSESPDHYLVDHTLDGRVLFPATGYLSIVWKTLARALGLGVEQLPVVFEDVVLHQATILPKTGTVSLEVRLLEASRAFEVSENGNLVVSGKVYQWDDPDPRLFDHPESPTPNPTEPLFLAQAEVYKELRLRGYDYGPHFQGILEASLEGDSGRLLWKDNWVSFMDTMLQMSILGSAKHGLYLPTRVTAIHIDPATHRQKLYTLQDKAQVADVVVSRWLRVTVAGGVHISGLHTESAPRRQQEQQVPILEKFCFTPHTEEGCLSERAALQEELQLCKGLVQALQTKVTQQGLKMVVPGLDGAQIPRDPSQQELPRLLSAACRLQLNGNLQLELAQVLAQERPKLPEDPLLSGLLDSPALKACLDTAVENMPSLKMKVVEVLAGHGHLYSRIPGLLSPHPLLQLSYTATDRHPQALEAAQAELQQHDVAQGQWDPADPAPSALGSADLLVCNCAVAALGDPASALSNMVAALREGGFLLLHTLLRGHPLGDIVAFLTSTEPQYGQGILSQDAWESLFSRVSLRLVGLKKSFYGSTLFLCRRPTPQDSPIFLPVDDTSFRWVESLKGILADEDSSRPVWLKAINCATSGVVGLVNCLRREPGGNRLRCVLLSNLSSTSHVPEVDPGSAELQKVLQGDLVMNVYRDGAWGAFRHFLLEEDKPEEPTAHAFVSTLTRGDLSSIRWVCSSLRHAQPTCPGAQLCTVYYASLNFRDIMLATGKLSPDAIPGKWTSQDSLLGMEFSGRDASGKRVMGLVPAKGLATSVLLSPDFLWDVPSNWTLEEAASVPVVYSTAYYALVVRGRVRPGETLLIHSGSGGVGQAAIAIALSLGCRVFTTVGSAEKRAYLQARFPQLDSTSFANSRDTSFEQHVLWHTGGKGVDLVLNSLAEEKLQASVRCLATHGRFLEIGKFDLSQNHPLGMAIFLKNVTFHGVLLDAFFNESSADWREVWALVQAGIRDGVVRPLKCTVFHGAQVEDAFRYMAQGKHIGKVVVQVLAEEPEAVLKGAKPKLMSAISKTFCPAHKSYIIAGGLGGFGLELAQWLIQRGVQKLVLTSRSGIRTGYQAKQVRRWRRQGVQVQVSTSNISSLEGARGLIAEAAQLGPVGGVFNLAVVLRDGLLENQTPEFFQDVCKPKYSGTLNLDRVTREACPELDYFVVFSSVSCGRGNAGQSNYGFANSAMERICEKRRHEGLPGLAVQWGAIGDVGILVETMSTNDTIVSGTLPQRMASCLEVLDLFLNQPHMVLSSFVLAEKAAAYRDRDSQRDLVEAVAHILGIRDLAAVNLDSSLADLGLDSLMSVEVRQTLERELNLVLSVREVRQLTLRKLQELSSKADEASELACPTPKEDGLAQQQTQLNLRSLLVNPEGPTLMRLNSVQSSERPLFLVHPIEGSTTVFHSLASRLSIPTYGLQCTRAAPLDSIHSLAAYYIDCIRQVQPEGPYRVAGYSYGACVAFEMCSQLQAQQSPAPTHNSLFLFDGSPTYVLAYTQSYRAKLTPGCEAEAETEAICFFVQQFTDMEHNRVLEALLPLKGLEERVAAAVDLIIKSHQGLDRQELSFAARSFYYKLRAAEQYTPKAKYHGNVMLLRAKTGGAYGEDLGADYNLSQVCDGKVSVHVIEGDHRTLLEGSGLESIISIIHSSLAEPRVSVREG

`CN(C)CCCCCC(=O)N[C@H]1CC[C@@H](C(=O)N(C)c2ccc(-c3nc4ccccc4n3C)cc2)C1` [Example 4.2, (1R,3S)-3-(6-Dimethylamino-hexanoylamino)-cyclopentanecarboxylic acid N-methyl-N-[4-(1-methyl-1H-benzoimidazol-2-yl)-phenyl]-amide] gave an IC50 [1] of 500 to 3000 nM.

Work on `CCNC(=O)N[C@H]1CC[C@@H](C(=O)N(C)c2ccc(-c3nc4ccccc4[nH]3)cc2)C1` [Example 2.4, (1R,3S)-3-(3-Ethyl-ureido)-cyclopentanecarboxylic acid N-[4′-(1H-benzoimidazol-2-yl)-phenyl]-N-methyl-amide] yielded an IC50 [1] of at most 500 nM.

Work on `CCNC(=O)N[C@H]1CC[C@@H](C(=O)N(C)c2ccc(-c3nc4ccccc4n3C)cc2)C1` [Example 4.1, (1R,3S)-3-(3-Ethyl-ureido)-cyclopentanecarboxylic acid N-methyl-N-[4-(1-methyl-1H-benzoimidazol-2-yl)-phenyl]-amide] yielded an IC50 [1] of 500 to 3000 nM.

For `C/C=C/C/C=C/CCC(=O)[C@H]1O[C@H]1C(N)=O` [Cerulenin, reference compound], the “% control 14C acetate incorporation” value ([2]; compound at 100 μM) was 73.3 % control.

With `CN(C)C(=O)N[C@H]1CC[C@@H](C(=O)N(C)c2ccc(-c3nc4ccccc4o3)cc2)C1` [Example 1.7, (1R,3S)-3-(3,3-Dimethyl-ureideo)-cyclopentanecarboxylic acid N-(4-benzooxazol-2-yl-phenyl)-N-methyl-amide] the IC50 [1] was at most 500 nM.

For `CN(C)CCCCCC(=O)N[C@H]1CC[C@@H](C(=O)N(C)c2ccc(-c3ccccc3)cc2)C1` [Example 3.5, (1R,3S)-3-(6-Dimethylamino-hexanoylamino)-cyclopentanecarboxylic acid N-biphenyl-4-yl-N-methyl-amide], the IC50 [1] was 500 to 3000 nM.

`CN(C)CCCCCC(=O)N[C@H]1CC[C@@H](C(=O)N(C)c2ccc(-c3nc4ccccc4[nH]3)cc2)C1` [Example 2.5, (1R,3S)-3-(6-Dimethylamino-hexanoylamino)-cyclopentanecarboxylic acid N-[4′-(1H-benzoimidazol-2 yl)-phenyl]-N-methyl-amide] was tested, and the IC50 [1] was 500 to 3000 nM.

In the case of `CCNC(=O)N[C@H]1CC[C@@H](C(=O)N(C)c2ccc(-c3ccccc3)cc2)C1` [Example 3.4, (1R,3S)-3-(3-Ethyl-ureido)-cyclopentanecarboxylic acid N-biphenyl-4-yl-N-methyl-amide], the IC50 [1] is reported as 500 to 3000 nM.

With `CC(C)C(=O)N[C@H]1CC[C@@H](C(=O)N(C)c2ccc(-c3nc4ccccc4[nH]3)cc2)C1` [Example 2.3, (1R,3S)-3-Isobutyrylamino-cyclopentanecarboxylic acid N-[4′-(1H-benzoimidazol-2-yl)-phenyl]-N-methyl-amide] the IC50 [1] was 500 to 3000 nM.

With `CC(=O)N[C@H]1CC[C@@H](C(=O)N(C)c2ccc(-c3nc4ccccc4[nH]3)cc2)C1` [Example 2.2, (1R,3S)-3-Acetylamino-cyclopentanecarboxylic acid N-[4′-(1H-benzoimidazol-2-yl)-phenyl]-N-methyl-amide] the IC50 [1] was 500 to 3000 nM.

In the case of `CCC(=O)N[C@H]1CC[C@@H](C(=O)N(C)c2ccc(-c3nc4ccccc4[nH]3)cc2)C1` [Example 2.1, (1R,3S)-3-Propionylamino-cyclopentanecarboxylic acid N-[4′-(1H-benzoimidazol-2-yl)-phenyl]-N-methyl-amide], the “% control 14C acetate incorporation” value ([2]; compound at 10 μM) is reported as 80.8 % control and the IC50 [1] is reported as at most 500 nM.

With `CC(=O)N[C@H]1CC[C@@H](C(=O)N(C)c2ccc(-c3nc4ccccc4o3)cc2)C1` [Example 1.3, (1R,3S)-3-Acetylamino-cyclopentanecarboxylic acid N-(4-benzooxazol-2-yl-phenyl)-N-methyl-amide] the “% control 14C acetate incorporation” value ([2]; compound at 10 μM) was 81.7 % control and the IC50 [1] was at most 500 nM.

Molecule `CC(=O)N[C@H]1CC[C@@H](C(=O)N(C)c2ccc(-c3ccccc3)cc2)C1` [Example 3.3, (1R,3S)-3-Acetylamino-cyclopentanecarboxylic acid N-biphenyl-4-yl-N-methyl-amide] has an IC50 [1] of at most 500 nM.

In the case of `CCNC(=O)N[C@H]1CC[C@@H](C(=O)N(C)c2ccc(-c3nc4ccccc4o3)cc2)C1` [Example 1.1, (1R,3S)-3-(3-Ethyl-ureido)-cyclopentanecarboxylic acid N-(4-benzooxazol-2-yl-phenyl)-N-methyl-amide], the IC50 [1] is reported as 500 to 3000 nM.

`CCCC(=O)N[C@H]1CC[C@@H](C(=O)N(C)c2ccc(-c3nc4ccccc4o3)cc2)C1` [Example 1.6, (1R,3S)-3-Butyrylamino-cyclopentanecarboxylic acid N-(4-benzooxazol-2-yl-phenyl)-N-methyl-amide] was tested, and the “% control 14C acetate incorporation” value ([2]; compound at 10 μM) was 81.0 % control and the IC50 [1] was at most 500 nM.

`CN(C)CCCCCC(=O)N[C@H]1CC[C@@H](C(=O)N(C)c2ccc(-c3nc4ccccc4o3)cc2)C1` [Example 1.4, (1R,3S)-3-(6-Dimethylamino-hexanoylamino)-cyclopentanecarboxylic acid N-(4-benzooxazol-2-yl-phenyl)-N-methyl-amide] was tested, and the IC50 [1] was 500 to 3000 nM.

`CCC(=O)N[C@H]1CC[C@@H](C(=O)N(C)c2ccc(-c3cn4ccccc4n3)cc2)C1` [Example 5.2, (1R,3S)-3-Propionylamino-cyclopentanecarboxylic acid N-[4-(imidazo[1,2-a]pyridin-2-yl)-phenyl]-N-methyl-amide] gave an IC50 [1] of 500 to 3000 nM.

With `CCC(=O)N[C@H]1CC[C@@H](C(=O)N(C)c2ccc(-c3nc4ccccc4o3)cc2)C1` [Example 1.2, (1R,3S)-3-Propionylamino-cyclopentanecarboxylic acid N-(4-benzooxazol-2-yl-phenyl)-N-methyl-amide] the “% control 14C acetate incorporation” value ([2]; compound at 10 μM) was 64.1 % control, the IC50 [1] was at most 500 nM and the “microscopic examination of skin (eye lid, muzzle, back skin)” value ([3]; female Wistar rats, 3, 10 and 30 mg/kg orally once daily for seven days, all dose groups) was “treatment-related diffuse atrophy of sebaceous glands of the skin”. The “effects on skin and coat of the animals” value [3, 4] was “progressive cranial alopecia” and the “skin of the mouth and eye lid” value [3, 4] was “reddened and swollen”.

For `CN(C(=O)[C@@H]1CC[C@H](NC(=O)C(F)F)C1)c1ccc(-c2nc3ccccc3o2)cc1` [Example 1.8, (1R,3S)-3-(2,2-Difluoro-acetylamino)-cyclopentanecarboxylic acid N-(4-benzooxazol-2-yl-phenyl)-N-methyl-amide], the IC50 [1] was at most 500 nM.

For `CC(C)C(=O)N[C@H]1CC[C@@H](C(=O)N(C)c2ccc(-c3ccccc3)cc2)C1` [Example 3.2, (1R,3S)-3-Isobutyrylamino-cyclopentanecarboxylic acid N-biphenyl-4-yl-N-methyl-amide], the IC50 [1] was at most 500 nM.

`CCC(=O)N[C@H]1CC[C@@H](C(=O)N(C)c2ccc(-c3nc4ccccc4n3C)cc2)C1` [Example 5.1, (1R,3S)-3-Propionylamino-cyclopentanecarboxylic acid N-methyl-N-[4-(1-methyl-1H-benzoimidazol-2-yl)-phenyl]-amide] was tested, and the “% control 14C acetate incorporation” value ([2]; compound at 10 μM) was 85.7 % control and the IC50 [1] was at most 500 nM.

Molecule `COCC(=O)N[C@H]1CC[C@@H](C(=O)N(C)c2ccc(-c3nc4ccccc4o3)cc2)C1` [Example 1.5, (1R,3S)-3-(2-Methoxy-acetylamino)-cyclopentanecarboxylic acid N-(4-benzooxazol-2-yl-phenyl)-N-methyl-amide] has an IC50 [1] of 500 to 3000 nM.

For `CCC(=O)N[C@H]1CC[C@@H](C(=O)N(C)c2ccc(-c3ccccc3)cc2)C1` [Example 3.1, (1R,3S)-3-Propionylamino-cyclopentanecarboxylic acid N-biphenyl-4-yl-N-methyl-amide], the “% control 14C acetate incorporation” value ([2]; compound at 10 μM) was 76.8 % control and the IC50 [1] was at most 500 nM.
